US11850243B2, “Dihydropyridine compositions and methods for treating neurological disorders” (Cavalon Therapeutics, Inc., priority 2021, dated 2023)

Tests used:
[1] = test system: Parkinson's disease; experiment: STEADY-PD III post-hoc analysis: isradipine exposure versus need for antiparkinson therapy and levodopa equivalent dose; format: in vivo, human
[2] = test system: dopaminergic neurons in the striatum and substantia nigra; conditions: 6-hydroxydopamine mouse model, cited from earlier work
[3] = molecular target: Cav1.3 (Homo sapiens, UniProt Q01668); conditions: in vitro; read-out: IC50 for inhibition of calcium currents through Cav1.3 (converted); cited from earlier work
[4] = test system: SNc DA neurons; conditions: chronic treatment in vivo, cited from earlier work
[5] = population pharmacokinetic modeling of plasma isradipine in STEADY-PD III by tertile groups; conditions: IR 5 mg twice daily; for CL/F: steady state; for Cave,ss: based on AUC24
[6] = Middle CL/F, Middle AUC24 tertile

Sequence of Cav1.3 (Q01668 whole entry): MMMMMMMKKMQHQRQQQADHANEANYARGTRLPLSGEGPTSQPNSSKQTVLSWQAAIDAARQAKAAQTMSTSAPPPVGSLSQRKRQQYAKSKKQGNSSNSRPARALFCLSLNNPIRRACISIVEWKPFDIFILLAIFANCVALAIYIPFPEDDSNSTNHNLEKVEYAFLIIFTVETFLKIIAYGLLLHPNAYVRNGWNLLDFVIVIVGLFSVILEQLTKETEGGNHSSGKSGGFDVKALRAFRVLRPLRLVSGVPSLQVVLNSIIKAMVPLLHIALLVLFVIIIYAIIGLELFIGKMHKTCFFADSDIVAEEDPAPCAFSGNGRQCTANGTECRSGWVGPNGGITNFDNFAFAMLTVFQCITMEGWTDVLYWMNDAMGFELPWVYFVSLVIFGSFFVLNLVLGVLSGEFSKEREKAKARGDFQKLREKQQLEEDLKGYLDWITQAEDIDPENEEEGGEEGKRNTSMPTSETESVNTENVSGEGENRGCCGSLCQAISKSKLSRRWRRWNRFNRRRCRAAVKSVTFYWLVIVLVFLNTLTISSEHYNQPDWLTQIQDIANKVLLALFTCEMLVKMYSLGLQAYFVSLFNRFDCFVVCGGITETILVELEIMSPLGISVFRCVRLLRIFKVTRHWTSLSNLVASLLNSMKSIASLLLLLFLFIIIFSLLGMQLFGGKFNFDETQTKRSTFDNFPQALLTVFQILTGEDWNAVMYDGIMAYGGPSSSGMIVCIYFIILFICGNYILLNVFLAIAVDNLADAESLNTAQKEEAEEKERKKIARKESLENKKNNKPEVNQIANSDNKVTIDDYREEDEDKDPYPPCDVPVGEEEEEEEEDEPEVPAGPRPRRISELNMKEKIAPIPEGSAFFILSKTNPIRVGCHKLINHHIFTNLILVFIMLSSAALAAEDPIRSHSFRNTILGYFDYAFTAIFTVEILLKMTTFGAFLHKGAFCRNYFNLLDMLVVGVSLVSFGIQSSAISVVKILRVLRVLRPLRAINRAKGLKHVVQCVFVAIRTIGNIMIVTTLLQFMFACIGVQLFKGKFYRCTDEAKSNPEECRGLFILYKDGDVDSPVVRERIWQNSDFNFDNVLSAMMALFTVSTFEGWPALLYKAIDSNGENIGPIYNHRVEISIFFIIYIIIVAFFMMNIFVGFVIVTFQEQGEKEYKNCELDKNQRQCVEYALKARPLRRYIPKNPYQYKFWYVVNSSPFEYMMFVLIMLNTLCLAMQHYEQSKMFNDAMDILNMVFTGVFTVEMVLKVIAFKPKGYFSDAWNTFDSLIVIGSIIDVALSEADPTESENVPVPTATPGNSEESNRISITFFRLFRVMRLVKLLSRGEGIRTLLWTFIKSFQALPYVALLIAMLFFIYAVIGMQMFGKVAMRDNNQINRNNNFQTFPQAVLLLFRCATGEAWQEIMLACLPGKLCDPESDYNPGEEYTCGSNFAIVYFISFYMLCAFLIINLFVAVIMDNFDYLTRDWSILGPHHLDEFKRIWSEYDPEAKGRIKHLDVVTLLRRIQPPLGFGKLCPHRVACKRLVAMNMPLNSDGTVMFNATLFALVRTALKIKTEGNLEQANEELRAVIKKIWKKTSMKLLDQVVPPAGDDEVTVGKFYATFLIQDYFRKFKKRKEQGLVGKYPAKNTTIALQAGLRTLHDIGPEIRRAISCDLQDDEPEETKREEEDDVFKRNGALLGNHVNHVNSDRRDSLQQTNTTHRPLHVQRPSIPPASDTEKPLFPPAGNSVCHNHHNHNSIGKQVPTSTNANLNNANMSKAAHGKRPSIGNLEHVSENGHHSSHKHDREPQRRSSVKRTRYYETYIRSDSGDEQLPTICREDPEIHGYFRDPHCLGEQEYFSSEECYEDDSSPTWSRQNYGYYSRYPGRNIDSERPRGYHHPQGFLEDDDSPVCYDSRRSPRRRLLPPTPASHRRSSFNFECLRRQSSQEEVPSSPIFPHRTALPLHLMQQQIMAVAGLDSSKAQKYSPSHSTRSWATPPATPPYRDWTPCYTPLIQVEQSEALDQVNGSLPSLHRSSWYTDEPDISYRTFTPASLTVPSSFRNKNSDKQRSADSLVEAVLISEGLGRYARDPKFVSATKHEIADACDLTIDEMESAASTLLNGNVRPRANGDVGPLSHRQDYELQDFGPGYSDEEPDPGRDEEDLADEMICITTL
Sequence of Cav1.3 (P54284 whole entry partner): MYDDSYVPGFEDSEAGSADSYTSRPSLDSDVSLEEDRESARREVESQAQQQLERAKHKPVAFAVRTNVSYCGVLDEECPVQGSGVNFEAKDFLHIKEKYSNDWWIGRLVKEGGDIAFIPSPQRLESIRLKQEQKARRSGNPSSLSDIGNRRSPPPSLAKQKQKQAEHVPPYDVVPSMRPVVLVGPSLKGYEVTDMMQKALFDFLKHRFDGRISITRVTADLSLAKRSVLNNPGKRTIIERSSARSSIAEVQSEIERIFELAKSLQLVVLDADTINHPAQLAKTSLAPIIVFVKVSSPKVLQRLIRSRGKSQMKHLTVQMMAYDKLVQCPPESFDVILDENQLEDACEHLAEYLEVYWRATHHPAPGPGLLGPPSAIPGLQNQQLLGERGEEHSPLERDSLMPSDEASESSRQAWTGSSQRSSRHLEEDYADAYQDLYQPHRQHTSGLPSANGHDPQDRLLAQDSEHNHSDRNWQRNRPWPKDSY
Sequence of Cav1.3 (P54289 25-946 partner limits assumed): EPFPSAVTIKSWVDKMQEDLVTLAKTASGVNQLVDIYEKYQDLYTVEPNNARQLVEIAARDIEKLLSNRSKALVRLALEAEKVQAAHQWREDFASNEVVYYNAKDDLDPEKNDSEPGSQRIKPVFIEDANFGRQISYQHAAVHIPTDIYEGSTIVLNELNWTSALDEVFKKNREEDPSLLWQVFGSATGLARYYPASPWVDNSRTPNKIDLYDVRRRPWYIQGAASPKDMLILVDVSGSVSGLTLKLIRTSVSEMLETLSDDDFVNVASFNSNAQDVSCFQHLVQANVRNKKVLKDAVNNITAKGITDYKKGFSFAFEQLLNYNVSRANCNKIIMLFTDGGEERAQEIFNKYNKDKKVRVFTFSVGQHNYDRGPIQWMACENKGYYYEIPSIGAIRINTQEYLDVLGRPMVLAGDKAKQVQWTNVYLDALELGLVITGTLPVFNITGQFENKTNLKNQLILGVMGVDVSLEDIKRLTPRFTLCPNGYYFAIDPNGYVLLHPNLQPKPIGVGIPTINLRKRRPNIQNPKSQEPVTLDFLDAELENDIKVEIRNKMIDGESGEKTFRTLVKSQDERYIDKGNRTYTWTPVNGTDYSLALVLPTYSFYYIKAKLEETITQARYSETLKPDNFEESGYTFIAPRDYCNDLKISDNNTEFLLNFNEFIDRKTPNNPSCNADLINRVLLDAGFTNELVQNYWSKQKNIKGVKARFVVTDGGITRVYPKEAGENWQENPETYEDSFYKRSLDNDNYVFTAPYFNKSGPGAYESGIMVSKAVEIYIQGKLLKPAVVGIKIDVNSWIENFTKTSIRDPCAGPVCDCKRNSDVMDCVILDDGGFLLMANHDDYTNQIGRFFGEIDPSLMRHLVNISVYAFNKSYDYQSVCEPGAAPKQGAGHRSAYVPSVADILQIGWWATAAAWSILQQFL
Sequence of Cav1.3 (P54289 947-1103 partner limits assumed): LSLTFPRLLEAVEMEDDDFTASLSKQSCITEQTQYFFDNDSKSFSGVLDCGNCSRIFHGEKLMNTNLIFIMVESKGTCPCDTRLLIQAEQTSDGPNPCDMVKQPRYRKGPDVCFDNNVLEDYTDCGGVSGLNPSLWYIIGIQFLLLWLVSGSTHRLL

SMILES: COC(=O)C1=C(C)NC(C)=C(C(=O)OC(C)C)C1c1cccc2nonc12 (centres unmarked) [isradipine]
- HR for time to need therapy ([1]; highest AUC24 exposure group vs placebo, 95% CI 0.45-0.97): 0.66
- decrease in risk of needing antiparkinson treatment ([1]; trend per CL/F tertile decrement or AUC24 tertile increment, vs placebo, p for trend=0.02): 13%
- HR for time to first initiation of antiparkinson therapy ([1]; trend per tertile, vs placebo, 95% CI:0.78-0.98): 0.87
- plasma concentration required to inhibit neuronal death by 50% (IC50) ([2]; systemic administration, plasma concentration): 5 to 7 ng/mL
- protection of dopaminergic neurons in the striatum and substantia nigra ([2]; systemic administration): concentration-dependent protection
- threshold plasma concentration for protection against neuronal death ([2]; inflection point in the concentration-response curve): 1.5 to 2 ng/mL
- IC50 [3]: ~8.08 nM
- high basal rate of mitophagy ([4]; SNc DA neurons): diminished
- mitochondrial oxidant stress ([4]; SNc DA neurons): significantly lowered
- cytosolic [Ca2+] in SNc DA neurons [4]: sustained reduction
- mitochondrial mass in SNc DA neurons [4]: increased
- Cmin,ss ([5]; Fast CL/F, Low AUC24 tertile): 0.56 ng/mL
- CL/F ([5]; Fast CL/F, Low AUC24 tertile): 477 L/h
- Cave,ss ([5]; Fast CL/F, Low AUC24 tertile): 0.9 ng/mL
- Cmin,ss [5, 6]: 0.86 ng/mL
- CL/F [5, 6]: 296 L/h
- Cave,ss [5, 6]: 1.4 ng/mL
- Cmin,ss ([5]; Slow CL/F, High AUC24 tertile): 1.40 ng/mL
- CL/F ([5]; Slow CL/F, High AUC24 tertile): 195 L/h
- Cave,ss ([5]; Slow CL/F, High AUC24 tertile): 2.1 ng/mL
